Test results taken from patent publication US20210379158A1, “METHOD FOR PREVENTING OR TREATING HEART FAILURE BY ADMINISTERING A MEDICAMENT CONTAINING AN ANTAGONIST OF CORTICOTROPIN RELEASING HORMONE RECEPTOR 2 (CRHR2)” (RaQualia Pharma Inc., priority 2017, published 2021).
No end group written: not given here.

Legend:
[1] = tested on: Crhr2; experiment: Pressure overload-induced cardiac dysfunction (TAC) in mice, continuous infusion initiated 1 wk after TAC; format: in vivo, mouse
Procedure: (§1) 8-10-week-old male mice were anesthetized with 50 mg/kg sodium pentobarbital, and osmotic minipumps (Alzet) containing Ucn2 (25, 50, 100 ng/g/day; Peptide Institute) or antisauvagine-30 (100 ng/g/day; Medical & Biological Laboratories) were implanted subcutaneously in the back for 4 wk.
TAC was performed under anesthesia and intubation. The chest was opened to visualize the aortic arch. The transverse aorta was then ligated between the right innominate and left common carotid arteries against a blunted 24-G needle with a 7-0 suture. The sham procedure was identical except that the aorta was not ligated.
(§2) Transthoracic echocardiography was performed on mice anesthetized with 50 mg/kg sodium pentobarbital. The left ventricular (LV) end-systolic diameter and the LV end-diastolic diameters were measured to calculate the % LV fractional shortening (% FS) in M-mode using an Acuson Sequoia C-512 (Siemens) with a 15-MHz probe. Systolic blood pressure (SBP) was measured by tail cuff method with an automatic sphygmomanometer (BP98A; Saffron) while the mice were restrained.
(§3) Mouse plasma Ucn2 and BNP were quantified by a mouse Ucn2 ELISA kit (Yanaihara), and by a BNP Enzyme Immunoassay kit (RayBiotech Inc.), respectively, according to the manufacturer's instructions.
Tissue samples were embedded in OCT compound (Sakura Finetek) and snap-frozen in liquid nitrogen. Left ventricular myocardium sections (6 μm slices) were stained with Picro-Sirius red with standard protocols and viewed with a BX51 microscope (Olympus). Cardiac fibrosis in 20 random images was quantified in ImageJ software.
We next investigated whether treatment with the Crhr2 antagonist, antisauvagine-30 (Rühmann et al., 1998, Proc. Natl. Acad. Sci. USA. 95:15264-15269), would attenuate the progression of established cardiac hypertrophy in mice. For this, continuous antisauvagine-30 infusion was initiated 1 wk after TAC surgery (FIG. 19).

[2] = tested on: Crhr2; experiment: Continuous Ucn2 infusion through subcutaneous osmotic pump in mice for 4 wk; format: in vivo, mouse
Procedure: as §1, §2, §3
To examine the effect of long-term Ucn2 up-regulation in vivo, we implanted mice with osmotic pumps that release Ucn2.

[3] = tested on: Crhr2; experiment: Continuous Ucn2 infusion in cardiomyocyte-specific Crhr2 knockout mice and control mice; format: in vivo, mouse
From the text: Crhr2^tm1a(KOMP)Wtsi mice on a C57BL/6 background were generated by the Knock Out Mice Program (KOMP) at the University of California Davis (Davis, Calif.) and Children's Hospital Oakland Research Institute (Oakland, Calif.). Crhr2^tm1a(KOMP)Wtsi mice were bred with mice expressing Flp recombinase to obtain Crhr2 conditional KO mice (Crhr2^flox/flox mice). Crhr2^flox/flox mice were backcrossed at least 10 times to wild-type C57BL/6 genetic background mice. Tamoxifen-inducible, cardiomyocyte-specific Crhr2 knockout mice (cmc-Crhr2-KOs) were generated by intercrossing the αMHC-CreERT2 line to Crhr2^flox/flox mice (Takefuji et al., 2012, Circulation. 126:1972-1982). Cre-mediated recombination of floxed alleles was induced with an intraperitoneal injection of 1 mg tamoxifen dissolved in 100 μl Miglyol for 5 consecutive days. Vehicle-treated mice received Miglyol only, and αMHC-CreERT2+/−-Crhr2^wt/wt mice were used as controls. Experiments were performed 2 wk after the end of induction.
as §1, §2
To examine the functional significance of Crhr2 in cardiomyocytes in vivo, we generated mice with tamoxifen-inducible cardiomyocyte-specific Crhr2 deficiency (cmc-Crhr2-KO) by mating αMHC-CreERT2 mice with Crhr2^flox/flox mice.

[4] = acute intravenous injection; cited from earlier work

antisauvagine-30
plasma BNP ([1]; TAC mice, 100 ng/g/day infusion from 1 wk after TAC, day 35, FIG. 22): strong reduction | cardiac hypertrophy (left ventricular weight/tibia length ratio) ([1]; TAC mice, 100 ng/g/day infusion from 1 wk after TAC, day 35, FIG. 23): strong reduction | cardiac fibrosis (fibrosis area) ([1]; TAC mice, 100 ng/g/day infusion from 1 wk after TAC, day 35, FIG. 24): strong reduction | systolic blood pressure ([1]; TAC mice, 100 ng/g/day infusion from 1 wk after TAC, FIG. 20): without significantly affecting systolic blood pressure | cardiac output (left ventricular fractional shortening) ([1]; TAC mice, 100 ng/g/day infusion from 1 wk after TAC, FIG. 21): protected mice from further deterioration of cardiac output

urocortin 2 (VILSLDVPIGLLRILLEQARYKAARNQAATNAQILAHV; ends and bridges not checked; UniProt Q99ML8 73-110, looked up) [Ucn2, Ligand/agonist of Crhr2, obtained from Peptide Institute]
left ventricular fractional shortening ([2]; 4 wk Ucn2 infusion 100 ng/g/day, FIG. 8): decrease in left ventricular fractional shortening | systolic blood pressure ([2]; 4 wk Ucn2 infusion 100 ng/g/day, FIG. 9): without significantly affecting systolic blood pressure | blood levels of brain natriuretic peptide (BNP) ([2]; 4 wk Ucn2 infusion 100 ng/g/day, FIG. 10): significantly increased | cardiac hypertrophy, left ventricular weight to tibia length ratio ([2]; 4 wk Ucn2 infusion 25, 50 or 100 ng/g/day, FIGS. 6 and 7): increased left ventricular weight to tibia length ratio in a dose-dependent manner | circulating Ucn2 levels ([2]; after 4 wk of sustained Ucn2 infusion (25, 50 or 100 ng/g/day), osmotic pump, blood, FIG. 5): elevated similar to those observed after TAC | fractional shortening decrease ([3]; cmc-Crhr2-KO mice, 4 wk of continuous Ucn2 infusion 100 ng/g/day, FIG. 13): significantly attenuated | Ucn2-induced hypertrophic response (left ventricular weight/tibia length ratio) ([3]; cmc-Crhr2 KO mice, 4 wk Ucn2 100 ng/g/day, FIG. 12): failed to show a Ucn2-induced hypertrophic response | fractional shortening ([3]; control mice, 4 wk of continuous Ucn2 infusion 100 ng/g/day, FIG. 13): decreased fractional shortening | TAC-induced cardiac dysfunction ([1]; 4 wk of sustained Ucn2 infusion initiating 1 wk after TAC surgery): accelerated TAC-induced cardiac dysfunction | cardiac contraction [4]: accelerate cardiac contraction
